In US11491147B2, “Combination drug therapy reduces PARP-1 related DNA repair and increases the efficacy of genotoxic agents” (Indiana University Research and Technology Corporation, priority 2016, dated 2022):

Tests used:
[1] = test system: MCF7, T47D, MDA-MB-231, and MDA-MB-468 cells; assay: Colony formation survival assay, four breast cancer cell lines
Method: Next, tested whether PPIs inhibit survival of breast cancer cell lines with different levels of FASN expression (FIG. 17B) using colony formation assay.
Briefly, breast cancer cells were seeded in six-well plates at 200 cells/well and cultured overnight followed by treatments without or with PPIs at different concentrations for 14 days. The colonies formed were then washed with PBS, fixed in 100% methanol and stained with 0.5% crystal violet in 25% methanol. The stained colonies were counted manually and concentration-response curves with IC50 were generated using Prism 7.0 (GraphPad, La Jolla, USA).

MDA-MB-468 cells [2] = assay: Colony formation survival assay, MDA-MB-468 cells; format: cell-based, human; conditions: pre-treated with 10 μM lansoprazole for 3 days
Method: (§1) For each potency ratio, combination index of three effective concentrations at IC30, IC50, and IC70 were calculated for synergistic effects using Prism 7.0.
(§2) Cells were then harvested and re-plated in 6-well plates at a density of 200 cells/well followed by IR treatment at different doses and colony formation assay or collection of cells for Western blot analysis. Concentration-response curves and IC50 values were calculated using Prism 7.0 (GraphPad, La Jolla, USA).

MDA-MB-468 cells [3] = assay: Apoptosis and cell cycle distribution, MDA-MB-468 cells; format: cell-based, human
Method: (§3) Cancer cells were plated in 6-well plates at a density of 2×10^5 cells/well, cultured overnight. […] Cells were washed with PBS and fixed ice cold 70% ethanol overnight. After centrifugation, pellets were resuspended in PBS, stained with propidium iodide solution for 30 min in the dark and analyzed by flow cytometry.

PARP1 expression = assay: Western blot of PARP1 expression in 4 breast cancer cell lines; format: cell-based, human; conditions: lansoprazole at different concentrations, all 4 cell lines
Excerpt: FIG. 18. Role of FASN in mediating PPI effect. A, Western blot analysis of FASN and PARP1 expression in MCF7 cells with ectopic FASN over-expression and in drug resistant MCF7/AdVp3000 (M3K) cells with FASN knockdown. […] E, Rescue of lansoprazole-induced reduction in NHEJ activity by ectopic FASN over-expression. […] G, Ablation of lansoprazole-induced γH2AX level increase by ectopic FASN over-expression as determined using Western blot analysis. Actin was used as loading control for all Western blot analyses.
FASN can regulate NHEJ repair activity by regulating PARP1 expression (Wu et al., 2017).
Cells were harvest and then lysed in TNN buffer with 1 mM DTT, 1 mM PMSF and 0.1% SDS for 30 min at 4° C. with occasional agitation. The cells were sonicated briefly and total proteins were harvested after centrifugation of the lysate at 16,000 g for 15 minutes at to remove cell debris. The protein concentration of cell lysates was determined using a Bio-Rad protein assay kit. […]

[4] = test system: NHEJ activity in MCF7 cells; assay: Host cell reactivation NHEJ assay, MCF7 cells; format: cell-based, human; conditions: 10 μM, three days
Method: (§4) The host cell reactivation NHEJ assay was carried out as previously described (Wu et al., 2017) with minor modifications. Briefly, 1×10^4 cells were seeded in 24-well plates, cultured overnight and then treated with 10 μM Lansoprzole or vehicle every day for three days before transfection with either linearized or intact pGL3-luc firefly luciferase plasmids (400 ng) using Lipofectamine 2000 (Invitrogen). pGL3-luc plasmid was linearized by HindIII digestion, and linearization was verified by DNA agarose gel electrophoresis before transfection. pRL-TK (Promega) plasmid which encodes renilla luciferase was co-transfected (400 ng) as a control for transfection efficiency. 8 hours after transfection, cells were harvested and assayed for luciferase activity with Dual Luciferase Assay (Promega) on a luminometer. Firefly luciferase signal were normalized to renilla luciferase signal in each group. Overall NHEJ activity was calculated by firefly luciferase activity from cells transfected with linearized plasmid relative to that of the intact plasmid.

γ-H2AX in MCF7 cells = assay: Western blot of γ-H2AX, MCF7 cells; format: cell-based, human; conditions: lansoprazole alone
Method: (§5) Furthermore, the lansoprazole-induced γ-H2AX increase in MCF7 cells was ablated by over-expressing ectopic FASN (FIG. 18G).
(§6) Cells were harvest and then lysed in TNN buffer with 1 mM DTT, 1 mM PMSF and 0.1% SDS for 30 min at 4° C. with occasional agitation. The cells were sonicated briefly and total proteins were harvested after centrifugation of the lysate at 16,000 g for 15 minutes at to remove cell debris. The protein concentration of cell lysates was determined using a Bio-Rad protein assay kit. Total cell lysates were then separated by SDS-PAGE, transferred to a polyvinylidene fluoride membrane, and probed using antibodies against fatty acid synthase (610963, BD biosciences), PARP-1 (46D11, CST), γ-H2AX (05-636, Millipore), and (3-Actin (A2228, Sigma). The blot was then probed with horseradish peroxidase-conjugated secondary antibodies (Sigma) and signals were captured on X-ray films following developing with Amersham ECL Western Blotting Detection Reagent (RPN2106, GE).

[5] = test system: NHEJ activity in MDA-MB-468 cells; assay: Host cell reactivation NHEJ assay, MDA-MB-468 cells; format: cell-based, human; conditions: 10 μM, three days
Method: as §4

MDA-MB-231 cells = assay: Colony formation survival assay, MDA-MB-231 cells; format: cell-based; conditions: Homo sapiens, single agent, read-out: IC50, cell survival
[6] = test system: γ-H2AX in MDA-MB-468 cells; assay: Western blot of γ-H2AX, MDA-MB-468 cells; format: cell-based, human; conditions: lansoprazole alone
Method: as §5, §6

breast cancer patients = assay: Retrospective survival analysis of electronic medical records of breast cancer patients; format: in vivo, human
Method: FIG. 16. Retrospective survival analysis of breast cancer patients with or without use of proton pump inhibitors (PPIs). De-identified electronic medical records of 6,752 breast cancer patients were retrieved from the database of Indiana Network for Patient Care (INPC) and subjected to Kaplan-Meier survival analysis in association with PPI usage in all patients (A) or in triple negative breast cancer patient subgroup (B). The p-value and hazard ratio (HR) were calculated from Cox proportional hazard models, which were adjusted for age, tumor stage, and time of first diagnosis.
Because PPIs are widely used for treatment of a variety of acid-related digestive disorders, many cancer patients may use PPIs without the knowledge that the combination of PPIs with their chemotherapy may have helped them. To this end, a retrospective association analysis was conducted using de-identified electronic medical records (EMR) of 6,752 breast cancer patients from Indiana Network for Patient Care (INPC). The average age at diagnosis is 58.9 years (range 19-102) and average age at death or last visit is 61.5 (range 21-104). Of this cohort, 534 patients took one or more PPIs after diagnosis as recorded in the EMR. There are 488 triple negative breast cancer (TNBC) patients, among them 35 used PPIs. Using the Cox proportional hazard regression model, the patient overall survival was analyzed against PPI usage. […] The protective effect of PPIs on patient survival was adjusted for age, tumor stage, and time of first diagnosis.
The patient database contains three domains of electronic medical records (EMR) of 6,752 de-identified breast cancer patients from Indiana Network for Patient Care (INPC). The first domain contains patient characteristics as shown in Supplemental Table 51. The second domain contains medical test results including body weight, blood tests, and office visit information. The third domain contains prescription information for each patient. The use of this database has been approved by IRB at Indiana University for this study.
The first task is to remove null and duplicated values and to resolve contradicting records. For patients that have contradicting records, different rules for different conflicts were followed. For conflicts on the first visit or diagnosis time, the earlier record at younger age were used as the first diagnosis and considered the later one as system update. For all other information including diagnosis information such as cancer subtype, the latest record was used as it is thought to be more accurate.
Next, the plain text information from the first domain of the database including but not limited to ER, PR, and HER2 test results, treatment plans, and therapy types were digitized. The record that is not clear was marked as unknown. For example, the HER2 status with a 2+ score, a borderline score, from IHC staining was usually confirmed with FISH test. Patients with a 2+ score but without a FISH test result were considered unknown in this study.
Further, the days of patient survival from data in the first domain were validated using prescription history of the same patient in the third domain of the database. When there is a conflict, the last day of office visit or prescription refill, whichever is later, was recorded as the last day of visit or death. Moreover, patients who took PPIs prior to their diagnosis of breast cancer but stopped taking them after diagnosis were considered non-PPI users in this study.

MCF7 cells [7] = assay: Apoptosis and cell cycle distribution, MCF7 cells; format: cell-based, human
Method: as §3

MCF7 cells [8] = assay: Colony formation survival assay, MCF7 cells; format: cell-based, human; conditions: MCF7 cells
Method: FIG. 15. […] B. Combination index. Combination index (CI) was derived using the data shown in A and the formula: […]
as §1, §2

Cc1c(OCC(F)(F)F)ccnc1C[S+]([O-])c1nc2ccccc2[nH]1 (centres unmarked) [lansoprazole]
inhibition of breast cancer cell survival, comparison among PPIs [1]: the most effective one for all 4 cell lines | sensitization to IR treatment (MDA-MB-468 cells [2]): sensitized | apoptosis (MDA-MB-468 cells [3]): dose-dependently induced apoptosis | cell cycle distribution (MDA-MB-468 cells [3]): S phase | PARP1 expression (PARP1 expression): dose-dependently reduced | NHEJ activity [4]: significantly reduced | level of γ-H2AX (γ-H2AX in MCF7 cells): increased the level of γ-H2AX in a dose-dependent manner | NHEJ activity [5]: significantly reduced | IC50 (MDA-MB-231 cells): 21.4 ± 4.1 µM | level of γ-H2AX [6]: increased the level of γ-H2AX in a dose-dependent manner | HR (CoxPH ratio), overall survival (breast cancer patients; pairwise versus Omeprazole users, all patients): 0.68 | HR (CoxPH ratio), overall survival (breast cancer patients; single-PPI users versus No PPI, all breast cancer patients): 0.17 | HR, overall survival (breast cancer patients; versus No PPI, African American (AA) patients): 1.09*10^−7 | HR, overall survival (breast cancer patients; versus No PPI, Caucasian (CA) patients): 0.18 | HR, overall survival (breast cancer patients; versus Omeprazole, AA patients): 3.99*10^−9 | HR, overall survival (breast cancer patients; versus Omeprazole, CA patients): 0.81 | apoptosis (MCF7 cells [7]): dose-dependently induced apoptosis | cell cycle distribution (MCF7 cells [7]): cell cycle arrest at G1 | IC50 (MCF7 cells [8]; Homo sapiens, single agent, colony formation, read-out: IC50, cell survival): 1.3 ± 0.7 µM | sensitization to IR treatment (MCF7 cells [8]; pre-treated with 10 μM lansoprazole for 3 days): sensitized
